The record followed here is a melting point compilation (Tetko et al.; mined from patent text by program, amines drawn as free bases though some values may be those of a salt).

Usually melting point stands for the temperature of the solid-liquid transition. Consider `COc1ccc(-c2c(Cl)c(CN3C(=O)CCC3=O)nc3sc4c(c23)CCC(C(=O)N2CCOCC2)C4)cc1` (centres undefined), for which the melting point was 170 to 171 °C.
The compound `CCC(CC)(CC(=O)Nc1cccc(OCc2ccc3cccc(F)c3n2)c1)C(=O)O` showed a melting point of 128 to 129 °C.
For the compound `CC12CCC3c4ccc(O)cc4CCC3C1CC(O)C2=C(F)F` (centres undefined), the melting point lay in the range of 225 to 227 °C.
Regarding `CN(C)C(=O)Nc1snc(S(C)(=O)=O)c1C#N`, the melting point fell in the range of 243 to 244 °C.
As for `Nc1sc2c(c1C(=O)c1cccs1)CCN(Cc1ccccc1)C2`, the figure is 122 to 123 °C; as for `Nc1ccn([C@H]2C=C[C@@H](O)CC2)c(=O)n1` (racemic), 224 to 226 °C; as for `Brc1csc(N2CCCCC2)n1`, 66 °C.
The compound `CCOC(=O)CN(C(=O)C(=O)N(CC(=O)OCC)S(=O)(=O)C(F)(F)F)S(=O)(=O)C(F)(F)F` gave a melting point of 88 to 90 °C.
For the compound `O=C(NOC1CCCCO1)c1ccc(-c2ccc3ncnc(Nc4ccc(OCc5cccc(F)c5)c(Cl)c4)c3c2)o1` (centres undefined), the melting point amounted to 221 °C.
As for `CCCN1CCN(c2ccc(C(C)=O)cc2)CC1`, the figure is 68 to 70 °C.
The compound `Cc1cccc2[nH]nnc12` displayed a melting point of 145 to 146 °C.
For `COc1cc(Cl)nn2c(-c3ccnc(N)c3)c(-c3ccc(F)c(C)c3)nc12`, the melting point fell in the range of 200 to 201 °C.
Regarding `O=C(O)CSc1nccn1Cc1cc(F)cc(F)c1`, the melting point lay within 101 to 103 °C.
As for `CCC1(O)OC(=O)c2ccc(Oc3ccc(C(F)(F)F)cc3Cl)cc21` (centres undefined), the figure is 120 to 122 °C; as for `COc1ccc2oc(CC(=O)O)c(C)c2c1`, 113 to 114 °C.
As for `CCNC(=O)Nc1ccc2[nH]cc(C(=O)O)c(=O)c2c1`, the figure is over 320 °C.
In the case of `COCc1cccc(C(=O)c2nc(OC)cc(OC)n2)c1[N+](=O)[O-]`, the melting point is 111 to 113 °C.
As for `CC(C)(C)C(=O)C(=CC1CCCCC1)n1cncn1`, the figure is 98 °C; as for `COc1cccc(-c2cn(N=Cc3ccccc3)c(N)n2)c1`, 170 to 171 °C; as for `CC1=C(C#N)S(=O)c2ccc(C(F)(F)F)cc2N1` (centres undefined), 290 to 292 °C.
The value for `CC(=O)OC1CSC(Oc2cccc(-c3ncccc3Cl)c2)C(OC(C)=O)C1OC(C)=O` (centres undefined) was 148 °C.
The compound `COc1ccc(C=NO)c(OC)c1C` gave a melting point of 110 to 111 °C.
As for `O=C(O)C1CCc2cc([N+](=O)[O-])ccc2O1` (centres undefined), the figure is 180 °C; as for `O=[N+]([O-])c1ccc(-c2cnc3nc(S(=O)(=O)Cl)nn3c2)cc1`, 159 to 167 °C; as for `O=C(Nc1cccc(S(=O)(=O)CCO)c1)c1cnn2c(C(F)F)cc(-c3ccc(C(F)(F)F)cc3)nc12`, 205 °C.
The value for `COC(=O)c1cc(NC(C)=O)ccc1O` was 147 to 148 °C; that for `O=[N+]([O-])c1ccc(-c2cc(C(F)(F)C(F)(F)C(F)(F)F)nc(-c3ccc(C(F)(F)F)cc3)n2)cc1` was 191 °C.
For the compound `COc1ccc(CC(C)NCC(O)c2cccc(Cl)c2)cc1F` (centres undefined), the melting point fell in the range of 93 to 95 °C.
Turning to `O=S(=O)(Nc1cccc(Oc2cccc3cccnc23)c1)c1ccc(Cl)cc1`, the melting point was 190 to 191 °C.
`COc1ccc(C#Cc2cc3ncc(C#N)c(Nc4cc(OC)c(Cl)cc4Cl)c3s2)cc1` displayed a melting point of 249 to 250 °C.
The value for `COc1ccc(C2=CCC(C#N)CC2)c2c1OCCO2` (centres undefined) was 79 °C; that for `CC(Cc1cccc(C(F)(F)F)c1)N(CC(=O)O)Cc1ccccc1` (centres undefined) was 80 °C; that for `NC(=O)CN1CCN(c2ccc(NC(=O)c3ccccc3-c3ccc(C(F)(F)F)cc3)cc2)CC1` was 226 to 228 °C.
`CN(C)C[C@H]1CC[C@H](CCNc2ncc(Br)cn2)CC1` came in with a melting point of 108 to 110 °C.
For `CCOC(=O)CC(=O)C=CNc1cc(C)no1`, the melting point fell in the range of 93 to 95 °C.
`CC1(C)Oc2ccc(C#N)cc2[C@@H](NC(=S)Nc2ccccc2)[C@@H]1O` (relative stereo) displayed a melting point of 183 to 185 °C.
The value for `CCCCCCCCC1C=CC(/C=C(\C)c2ccc(C(=O)O)o2)=C2N=C3CCCCC3=C21` (centres undefined) was 160 to 162 °C; that for `CN(C)CC1CCCCN1CC(=O)N1c2ccccc2C(=O)Nc2cccnc21` (centres undefined) was 189 to 190 °C; that for `Cc1ccc(-c2nc3c(N[C@H]4[C@@H](C(N)=O)[C@@H]5C=C[C@H]4C5)c(Br)cnc3[nH]2)o1` was 200 to 201 °C.
`O=C(O)CCc1nc(-c2ccccc2)nc2ccccc12` registered a melting point of 159 °C.
The value for `COc1ccc(C=O)c(OC)c1Cl` was 107 to 108 °C; that for `Cc1nnc(OCC(F)(F)F)c(-c2c(F)cc(F)cc2F)c1-c1ccc(Cl)cc1` was 105 to 108 °C.
The value for `CCOC(=O)c1cnc2c(c1O)CCCCCCCCCC2` was 182 to 190 °C; that for `COC=C1CN(C(c2ccccc2)c2ccccc2)C1` was 56 to 58 °C.
Compound `CCC1CC(=O)N(Cc2ccc(N)cc2)N=C1c1ccc(OC)c(OC)c1` (centres undefined) had a melting point of 49 °C.
Take `COc1ccc(-c2nn(Cc3ccccc3)c(=O)cc2-c2ccc(Cl)cc2)cc1`: the melting point was 165 to 167 °C.
As for `CCN(CC)Cc1nc(-c2ncn3c2[C@@H]2CCCN2C(=O)c2c(Cl)cccc2-3)no1`, the figure is 151 to 153 °C.
As for `COc1ccc(-c2cn3ccccc3n2)cc1OC`, the figure is 96 °C; as for `Cc1ccc(S(=O)(=O)NC[C@H](F)Cc2ccccc2)cc1`, 130 to 133 °C.
In the case of `CNC(=O)c1ccccc1Nc1nc(Nc2ccc3c(c2)NC(=O)CCC3)ncc1Cl`, the melting point fell in the range of 293 to 295 °C.
On to `O=C(O)Cc1cccc2c(=O)cc(-c3cccc(F)c3)oc12`, for which the melting point fell in the range of 208 to 211 °C.
As for `CCCCn1c(=O)c2nn(S(=O)(=O)CCCCl)cc2n(CCCC)c1=O`, the figure is 67 to 68 °C; as for `CC(C(N)=O)c1ccc2c(c1)oc1ccc(Cl)cc12` (centres undefined), 210 to 211 °C; as for `CCOc1nc(NCc2ccco2)nc(Nc2ccc3nc(C)[nH]c3c2)n1`, 150 to 152 °C.
`CCOC(=O)c1c2n(c3ccc(Cl)cc3c1=O)CCS2` returned a melting point of 321 °C.
For `Cc1cccc(-c2ccc(-c3cnn(Cc4ccc([N+](=O)[O-])cc4)c(=O)c3-c3ccc(F)cc3)cc2)c1S(=O)(=O)O`, the melting point lay within 183 to 184 °C.
As for `CC1CN(c2ccc([N+](=O)[O-])cc2)CC(C)N1` (centres undefined), the figure is 124 to 125 °C; as for `Cc1ccccc1-c1c(Cl)nc2ccccc2c1Cl`, 78 to 80 °C.
The value for `Cc1nc(-c2cccc(Cl)c2)c2cc(C(=O)c3ccc(Cl)cc3)ccc2n1` was 182 °C.
The compound `COc1cccc2c1CCC(COC(=O)N(c1ccccc1)c1ccccc1)C2` (centres undefined) returned a melting point of 144 to 146 °C.
The value for `CCCc1nc(C(=O)C(C)(C)C)c(C#N)[nH]1` was 176 to 178 °C; that for `CS(=O)(=O)c1ccc(-c2cnn(CC(F)(F)F)c(=O)c2Oc2cccnc2)cc1` was 191 to 193 °C; that for `CCOC(=O)C(Oc1ccc(Cl)cc1)C(=O)OCC` was 43.5 to 45 °C.
The value for `Cc1nc(NC(=O)c2cnn3c(C(F)(F)F)cc(-c4ccc(C(F)(F)F)c(OCC(F)(F)F)c4)nc23)sc1S(N)(=O)=O` was 264 °C; that for `O=C(Nc1nc2ccc(Cl)cc2s1)c1ccc2cccnc2c1O` was over 320 °C.
`NC(=O)C1CN1C(=O)Oc1ccccc1` (centres undefined) came in with a melting point of 140 to 142 °C.
`Cc1cccc(NC(=O)NCC(=O)N(CC(=O)NCC2CC2)c2ccccc2)c1` came in with a melting point of 168 °C.
As for `CC1CC(c2c[nH]c(-c3ccc(F)cc3)c2-c2ccncc2)CCN1` (centres undefined), the figure is 198 to 205 °C.
`COC(=O)/C=C/c1occc(=O)c1OCC(=O)OC(C)(C)C`: the melting point lay in the range of 115 to 116 °C.
The value for `CC(C)(C)C=CC1=C(O)C(=O)c2ccccc2C1=O` was 126 to 128 °C.
The value for `N#Cc1ccc(OCCCC(=O)O)cc1` was 210 °C.
As for `CSC1=Nc2ccccc2Sc2nccn21`, the melting point was 116 to 118 °C.
With `Cc1noc(NS(=O)(=O)c2cccc(-c3ccccc3)c2)c1Br`, the melting point lay within 78 to 82 °C.
The value for `CC(=O)C1CCC2C3CCC4=CC(=O)C=CC4(C)C3C=CC12C` (centres undefined) was 167 to 169 °C; that for `Clc1nc(Cl)nc(NC2CC2)n1` was 99 to 101 °C; that for `CCC(=O)N1CCN(c2ccc(NC(=O)c3cc(=O)c4cc(F)cc(N5CCN(C)CC5)c4o3)cc2)CC1` was 244 to 245 °C.
The value for `O=C1NC(=O)C(c2ccc(O)cc2)N1` (centres undefined) was 262 °C; that for `CCOC(=O)c1cc2c(C)ccc3c2n1CCC3` was 51 to 52 °C.
Compound `O=C1C=CC2(C=C1)N=C(N1CCN(Cc3ccc(F)cc3)CC1)C=C2c1ccccc1` registered a melting point of 188 °C.
For the compound `C[C@H]1C(=O)N[C@@H](Cc2c[nH]c3ccccc23)C(=O)N1OCc1ccccc1`, the melting point is 172 to 174 °C.
`COc1c(C)cnc(Cn2cc(C#CCC(C)(C)O)c3c(Cl)nc(N)nc32)c1C` displayed a melting point of 163 to 165 °C.
The value for `O=S(=O)(CCCCl)Nc1ccc(N2CCN(c3ccc(OCC(O)(Cn4cncn4)c4ccc(Cl)cc4Cl)cc3)CC2)cc1` (centres undefined) was 80 to 81 °C.
Turning to `O=C(O)[C@H]1C[C@@H](C(=O)O)c2c(Cl)cc(Cl)cc2N1` (relative stereo), the melting point is 225 to 227 °C.
As for `CC(=O)COc1ccc(Cc2ccccc2)cc1`, the figure is 51 to 52 °C; as for `CC(c1ccc(Oc2ccccc2)cc1)N(O)C(N)=O` (centres undefined), 118 to 119 °C.
With `COCCOc1cc2ncnc(NC3=CC(=O)C(Oc4ccc(C)cc4)=CC3=O)c2cc1OC`, the melting point was in the range of 171 to 172 °C.
The value for `CC(C)CC(=O)C1CCC2C3CN(C(C)(C)C)C4=CC(=O)CCC4(C)C3CCC12CC(=O)O` (centres undefined) was 169 to 171 °C; that for `CCOC(=O)c1ncc2[nH]c3ccc(C4=CC(=O)CCC4)cc3c2c1C` was 245 to 248 °C.
`O=Cc1csc(N(c2ccccc2)c2ccccc2)n1`: the melting point was in the range of 160 to 161 °C.
